According to US9999623B2, “Use of substituted 2,3-dihydroimidazo[1,2-c]quinazolines for treating lymphomas” (BAYER PHARMA AKTIENGESELLSCHAFT, priority 2013, dated 2018):
pIC50: −log10 of the molar value. Structures can show the parent of a compound that is named as a salt.

How the values were obtained:
[1] = system: signaling pathways in OCI-Ly3 and HBL-1 cells; test: Western blot modulation of intracellular signaling pathways; format: cell-based, human; settings: 24 h post treatment
Procedure: Modulation of intracellular pathways were assessed by Western blots at 24 h post treatment with indicated compounds either as single agent or in combination. Antibodies used in this study are AKT (#4685, Cell Signaling), p-AKT (04060, Cell Signaling), ERK (#4695, Cell Signaling), p-ERK (#4376, Cell Signaling), BTK (#3533, Cell Signaling), p-BTK (05082, Cell Signaling), IκBα (#4812, Cell Signaling), p-IκBα (#AF4809, R&D), p-IKKα/β (02078, Cell Signaling), IKKβ (02370, Cell Signaling).

[2] = system: TMD-8 tumor cells; settings: 20 mg/kg once daily po; day 29
Procedure: Untreated female 5-6 week old CB17.Scid mice are inoculated with 10×10^6 TMD-8 tumor cells (suspended in 50% Matrigel and 50% Medium) subcutaneously into the flank. Animals are randomized to treatment groups when tumors reach a tumor area of 30-35 mm^2. Treatment is conducted as described in FIG. 5 legend. Tumor area and animal body are recorded three times per week.
Tumor growth was monitored by determination of the tumor area using caliper measurement 3 times weekly. QD, once daily; SD, standard deviation of the mean; TGI, relative tumor growth inhibition vs control (%, tumor area at the end of the study on day 29)

[3] = system: DLBCL cell lines; test: 72-h CellTiter-Glo anti-proliferative assay; format: cell-based, human; settings: for pIC50: Homo sapiens; for anti-proliferative activity profile across DLBCL cell lines: panel of 8 DLBCL cell lines
Procedure: Briefly, cells were plated at 250-2000 cells/well of 384-well plates (based on cell lines) in 20 μL of growth medium. For each cell line assayed, cells were plated into a separate plate for determination of luminescence at the t=0 hours and t=72 hour time points. […] Dose plates for t=72 hour time points were treated with compounds diluted into growth medium in a final volume of 30 μL. Cells were then incubated for 72 hours at 37° C. Luminescence values for the t=72 hour samples were determined by adding 30 μL of Promega CellTiter-Glo solution, placing the cells on a shaker for 10 minutes at room temperature, and then reading the luminescence using a Victor luminometer. For data processing, t=0 values are subtracted from those determined for the t=72 hour time points, for both the treated and untreated samples. Percent differences in luminescence between drug treated and controls are used to determine percent inhibition of growth.

[4] = system: DLBCL; settings: patients with PD/patients; cited from earlier work
[5] = Phase II study, single agent, safety (adverse events); format: in vivo, human
Procedure: Patients received COMPOUND OF FORMULA I at a dose of 0.8 mg/kg as a 1 hour infusion on days 1, 8 and 15 of a 28-day cycle. Patients continued on therapy until disease progression or unacceptable toxicity.

[6] = system: follicular NHL; settings: phase I dose-escalation study (Patnaik et al, ASH 2012); cited from earlier work
[7] = system: indolent or aggressive lymphoma; test: Phase II study, single agent, response by lymphoma subtype; format: in vivo, human; settings: for Best response CR/CRu, number of patients / Best response PD, number of patients / Best response PR, number of patients / Best response SD, number of patients: staged patients; for complete RR / overall response rate (RR): interim analysis
Procedure: In this Phase II study, patients with histologically confirmed indolent or aggressive lymphoma relapsed or refractory to ≥2 prior lines of treatment were eligible. Patients received COMPOUND OF FORMULA I at a dose of 0.8 mg/kg as a 1 hour infusion on days 1, 8 and 15 of a 28-day cycle. Patients continued on therapy until disease progression or unacceptable toxicity. Responses were assessed every two cycles according to the response criteria for lymphoma (Cheson et al, JCO 17:1244, 1999) or the guidelines for diagnosis and treatment of chronic lymphocytic leukemia (CLL; Hallek et al., Blood 111:5446-56, 2008).
As of May 31, 2013, a total of 61 lymphoma patients (27 indolent and 34 aggressive) were enrolled and 56 started study treatment. Patients were similarly distributed among indolent and aggressive cohorts with respect to gender (52% female), median age (68 yr, range 22-90) and ethnicity (76% Caucasian) and were heavily pretreated (median number of prior therapies: 3; prior Rituximab: 84%; prior ASCT: 20%). Other characteristics included advanced stage III-IV in 85% and B symptoms in 17%. The following entities were represented: follicular (FL; n=13); CLL (n=11); marginal zone (MZL; n=3; none re-staged); diffuse large B-cell (DLBCL; n=17); mantle cell (MCL; n=7); transformed (n=5); and peripheral T-cell (PTCL; n=4). At the time of analysis patients had received between 1 and 5 cycles of treatment. Objective responses were seen across histologic subtypes (Table 1). At the time of this interim analysis, the overall response rate (RR) and complete RR were 44% and 22% in FL, 83% and 17% in MCL, and 50% and 0% in PTCL, respectively.

[8] = phase I dose-escalation study (Patnaik et al, ASH 2012); cited from earlier work
[9] = Half-life in mice; settings: mouse, in vivo, iv
[10] = system: DLBCL; test: Initial clinical efficacy in NHL patients (phase I dose-escalation), DLBCL; format: in vivo, human; settings: DLBCL patient with SD
[11] = system: follicular NHL; test: Initial clinical efficacy in NHL patients (phase I dose-escalation), follicular NHL; format: in vivo, human; settings: patients with PR/patients; PR at end of cycle 2 at 0.8 mg/kg, one case end of cycle 4 at 0.6 mg/kg
Procedure: A phase I dose-escalation study (Patnaik et al, ASH 2012) established the maximum tolerated dose of COMPOUND OF FORMULA I (0.8 mg/kg) and reported promising activity (6/6 PR) in follicular lymphoma. In the present study we further investigated the activity and safety of COMPOUND OF FORMULA I in patients with indolent or aggressive lymphoma subtypes that have progressed after standard therapy.

C=CC(=O)N1CCC[C@@H](n2nc(-c3ccc(Oc4ccccc4)cc3)c3c(N)ncnc32)C1 [ibrutinib]
feedback activation of p-ERK ([1]; both HBL-1 and OCI-Ly3 cells): Activation of p-ERK
TGI (rel TA) [2]: 70%
pIC50 ([3]; BCR-mutant cell lines even in the presence of activating NFκB pathway): > 7.52
pIC50 ([3]; cell lines without BCR-activating mutations (or complete inactivity)): < 6.00

CC[C@H](Nc1ncnc2[nH]cnc12)c1nc2cccc(F)c2c(=O)n1-c1ccccc1 [GS-1101]
feedback activation of p-ERK ([1]; HBL-1 cells): Activation of p-ERK
PD (progression of disease) in DLBCL patients [4]: 9/9
decreased activity with respect to IC50 values ([3]; any mutations downstream of BCR): > 100 fold
anti-proliferative activity profile across DLBCL cell lines [3]: active only in BCR-mutant cell lines without downstream mutations

O=C1Nc2nc(-c3c(O)cccc3OCC3CC3)cc([C@@H]3CCCNC3)c2CO1 [BAY Compound B]
feedback activation of p-IKKα/β ([1]; both HBL-1 and OCI-Ly3 cells): Activation of p-IKKα/β
anti-proliferative activity profile across DLBCL cell lines [3]: more active in ABC-DLBCL compared with GCB-DLBCL cell lines

COc1c(OCCCN2CCOCC2)ccc2c1N=C(NC(=O)c1cnc(N)nc1)N1CCN=C21 [COMPOUND OF FORMULA I, 2-amino-N-[7-methoxy-8-(3-morpholin-4-ylpropoxy)-2,3-dihydroimidazo[1,2-c]quinazolin-5-yl]pyrimidine-5-carboxamide]
deaths ([5]; 1 progressive disease, 1 acute respiratory insufficiency, 1 Cryptococcal meningitis, 1 sepsis after salvage chemotherapy): Four
toxicity profile ([5]; 1st line, 2nd line, relapsed, refractory lymphoma): acceptable toxicity profile
cases of interstitial pneumonitis ([5]; both resolved following corticosteroid administration): two
Hyperglycemia of any grade ([5]; in vivo): 47%
Withdrawal of study drug due to AEs ([5]; in vivo): 10 patients
colitis ([5]; in vivo): No case of colitis was reported
grade 4 hyperglycemia ([5]; in vivo): no grade 4 hyperglycemia was observed
grade 4 hypertension ([5]; in vivo): no grade 4 hypertension was reported
patients who required a dose reduction ([5]; in vivo): 4 patients
patients who required antihypertensive treatment ([5]; in vivo): Eight
patients who required insulin therapy ([5]; in vivo): Four
Diarrhea of any grade ([5]; of cases): 25%
Grade 3/4 AE diarrhea ([5]; of patients): 5%
Grade 3/4 AE fatigue ([5]; of patients): 5%
Grade 3/4 AE hyperglycemia ([5]; of patients): 13%
Grade 3/4 AE hypertension ([5]; of patients): 31%
Grade 3/4 AE neutropenia ([5]; of patients): 16%
Grade 3 adverse events (AE) ([5]; of patients): 49%
Hypertension of any grade ([5]; of patients): 46%
Withdrawal of study drug due to AEs ([5]; of patients): 16%
grade 4 AE (all neutropenia) ([5]; of patients): 15%
PR in follicular lymphoma [6]: 6/6
Best response CR/CRu, number of patients ([7]; CLL (n = 9)): 0
Best response PD, number of patients ([7]; CLL (n = 9)): 1
Best response PR, number of patients ([7]; CLL (n = 9)): 4
Best response SD, number of patients ([7]; CLL (n = 9)): 4
Best response CR/CRu, number of patients ([7]; DLBCL (n = 17)): 0
Best response PD, number of patients ([7]; DLBCL (n = 17)): 8
Best response PR, number of patients ([7]; DLBCL (n = 17)): 2
Best response SD, number of patients ([7]; DLBCL (n = 17)): 7
Best response CR/CRu, number of patients ([7]; FL (n = 9)): 2
Best response PD, number of patients ([7]; FL (n = 9)): 0
Best response PR, number of patients ([7]; FL (n = 9)): 2
Best response SD, number of patients ([7]; FL (n = 9)): 5
complete RR ([7]; FL): 22%
overall response rate (RR) ([7]; FL, 0.8 mg/kg days 1, 8, 15 of 28-day cycle): 44%
Best response CR/CRu, number of patients ([7]; MCL (n = 6)): 1
Best response PD, number of patients ([7]; MCL (n = 6)): 1
Best response PR, number of patients ([7]; MCL (n = 6)): 4
Best response SD, number of patients ([7]; MCL (n = 6)): 0
complete RR ([7]; MCL): 17%
overall response rate (RR) ([7]; MCL): 83%
Best response CR/CRu, number of patients ([7]; PTCL (n = 4)): 0
Best response PD, number of patients ([7]; PTCL (n = 4)): 2
Best response PR, number of patients ([7]; PTCL (n = 4)): 2
Best response SD, number of patients ([7]; PTCL (n = 4)): 0
complete RR ([7]; PTCL): 0%
overall response rate (RR) ([7]; PTCL): 50%
Best response CR/CRu, number of patients ([7]; Transformed (n = 5)): 0
Best response PD, number of patients ([7]; Transformed (n = 5)): 2
Best response PR, number of patients ([7]; Transformed (n = 5)): 1
Best response SD, number of patients ([7]; Transformed (n = 5)): 2
clinical activity ([7]; single agent, 1st line, 2nd line, relapsed, refractory lymphoma): clinically active as a single agent
maximum tolerated dose [8]: 0.8 mg/kg

COc1c(OCCCN2CCOCC2)ccc2c1N=C(NC(=O)c1cnc(N)nc1)N1CCN=C21 [COMPOUND A, 2-amino-N-[7-methoxy-8-(3-morpholin-4-ylpropoxy)-2,3-dihydroimidazo[1,2-c]quinazolin-5-yl]pyrimidine-5-carboxamide dihydrochloride]
half-life [9]: ~1 h
tumor reduction [10]: 39%
PR (partial response) in follicular NHL [11]: 6/6
